Source: patent US20030134859A1 (SANKYO COMPANY, LIMITED, priority 2000, published 2003)
Structures can show the parent of a compound that is named as a salt. Where two headings read alike, the source gives them in different places.

How the values were obtained:
[1] = system: human colon cancer cells COL-2-JCK; assay: Inhibition of colony forming activity in human colon cancer cells; assay type: cell-based; details: 1 μM test compound, 10 days, sum of colony areas vs control; for inhibition at 1 µM: Homo sapiens, 240 h, read-out: Inhibition Rate (%) against the colony forming activity
In short: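 COL-2-JCK cells seeded at 300 cells/well and grown 10 days at 37 °C, 5% CO2 with compound at 1 μM final (0.1% DMSO). Colonies stained with crystal violet in formalin; inhibition % = (1 − treated/control colony area)×100.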

Balb/c mice = assay: Prevention of concanavalin A liver injury; assay type: in vivo, mouse; details: 10 mg/mL suspension at 10 mL/kg, 30 min prior to Con A, plasma 24 hr after Con A; for inhibition in vivo at 10000 µg/mL, 100 mg/kg: Mus musculus, po, 24 h
Experimental: Five (5) Balb/c mice (female, 6-8 weeks old) per group were used. Liver injury was elicited in the mouse by injection of concanavalin A (Con A) dissolved in saline (2.0 mg/mL) into the tail vein at a volume of 10 mL/kg of the solution (Hepatology, 21, 190-198 (1995)).
The test compounds were suspended in distilled water containing 0.5% CMC, at a concentration of 10 mg/mL. This suspended solution was orally administered to the mouse at a volume of 10 mL/kg, 30 min prior to injection of Con A (group A).
Apart from this group, distilled water containing 0.5% CMC powder, instead of the test compound, was orally administered in the second group of mice (group B). In the 3rd group, nothing was given to the mice (group C).
Twenty four (24) hr after the injection of Con A, blood was collected from the abdominal aorta of the mice and the plasma was isolated while mixing with heparin. Activities of glutamic acid oxaloacetic acid transaminase (AST) and glutamic acid pyruvic acid transaminase (ALT) in the plasma were determined according to the methods described by Nagakawa et al. (J. Pharmacol. Exp. Ther., 264, 496-500 (1993)). From the values obtained inhibitory rates of the test compound against AST and ALT levels which had been increased by injection of Con A, were obtained based on the following equation.
Inhibitory Rate(%)={1−[(A−C)/(B−C)]}×100
A: The average level of AST or ALT in the group A
B: The average level of AST or ALT in the group B
C: The average level of AST or ALT in the group C

[2] = read-out: Preventing rate against liver injury, ALT (%)
[3] = read-out: Preventing rate against liver injury, AST (%)

Question: How did the inhibition at 1 µM [1] turn out when `O=C(Nc1ccc(-c2ccc([N+](=O)[O-])cc2)cc1)c1cc([N+](=O)[O-])ccc1Cl` [Example 9, N-[4-(4-Nitrophenyl)phenyl)-(2-chloro-5-nitrophenyl)carboxamide] was run?
Answer: The inhibition at 1 µM was 29%.

Question: Which inhibition at 1 µM [1] does the source give for `CCCc1ccc(NC(=O)c2cc([N+](=O)[O-])ccc2Cl)cc1` [Example 15, N-(4-Propylphenyl)-(2-chloro-5-nitrophenyl)carboxamide] here?
Answer: The inhibition at 1 µM was 14%.

Question: And the inhibition in vivo at 10000 µg/mL, 100 mg/kg (Balb/c mice; [2])?
Answer: Its inhibition in vivo at 10000 µg/mL, 100 mg/kg is 39%.

Question: And the inhibition in vivo at 10000 µg/mL, 100 mg/kg (Balb/c mice; [3])?
Answer: Its inhibition in vivo at 10000 µg/mL, 100 mg/kg is 54%.

Question: `O=C(Nc1ccc(OC(F)(F)F)cc1)c1cc([N+](=O)[O-])ccc1Cl` [Example 18, N-(4-Trifluoromethyloxyphenyl)-(2-chloro-5-nitrophenyl)carboxamide] was tested. Which inhibition in vivo at 10000 µg/mL, 100 mg/kg (Balb/c mice; [2]) did it give?
Answer: The inhibition in vivo at 10000 µg/mL, 100 mg/kg was 39.8%.

Question: What about the inhibition in vivo at 10000 µg/mL, 100 mg/kg (Balb/c mice; [3]) of the same compound?
Answer: The inhibition in vivo at 10000 µg/mL, 100 mg/kg was 24.1%.

Question: For `Cc1ccc(S(=O)(=O)Nc2ccc(NC(=O)c3cc([N+](=O)[O-])ccc3Cl)cc2)cc1` [Example 32, N-[4-(4-Methylbenzene)sulfonylaminophenyl]-(2-chloro-5-nitrophenyl)carboxamide], which “Inhibition Rate (%) against the colony forming activity” value [1] is on record?
Answer: Its value is 39.0%.

Question: `O=C(Nc1nc2ccc([N+](=O)[O-])cc2s1)c1cc([N+](=O)[O-])ccc1Cl` [Example 34, N-(6-Nitrobenzothiazol-2-yl)-(2-chloro-5-nitrophenyl)carboxamide] was tested. Which inhibition at 1 µM [1] did it give?
Answer: Its inhibition at 1 µM is 41%.

Question: `O=C(Nc1ccncc1)c1cc([N+](=O)[O-])ccc1Cl` [Example 49, N-(4-Pyridyl)-(2-chloro-5-nitrophenyl)carboxamide] was tested. Which inhibition in vivo at 10000 µg/mL, 100 mg/kg (Balb/c mice; [2]) did it give?
Answer: The inhibition in vivo at 10000 µg/mL, 100 mg/kg was 59%.

Question: And the inhibition in vivo at 10000 µg/mL, 100 mg/kg (Balb/c mice; [3])?
Answer: Its inhibition in vivo at 10000 µg/mL, 100 mg/kg is 61%.

Question: `O=C(Nc1cnc2ccccc2c1)c1cc([N+](=O)[O-])ccc1Cl` [Example 55, N-(3-Quinolinyl)-(2-chloro-5-nitrophenyl)carboxamide] was tested. Which inhibition at 1 µM [1] did it give?
Answer: Its inhibition at 1 µM is 8%.

Question: How did the inhibition at 1 µM [1] turn out when `O=C(Nc1nccc2ccccc12)c1cc([N+](=O)[O-])ccc1Cl` [Example 59, N-(Isoquinolin-1-yl)-(2-chloro-5-nitrophenyl)carboxamide] was run?
Answer: The inhibition at 1 µM was 94%.

Question: And the inhibition in vivo at 10000 µg/mL, 100 mg/kg (Balb/c mice; [2])?
Answer: The inhibition in vivo at 10000 µg/mL, 100 mg/kg was 18.7%.

Question: What about the inhibition in vivo at 10000 µg/mL, 100 mg/kg (Balb/c mice; [3]) of the same compound?
Answer: Its inhibition in vivo at 10000 µg/mL, 100 mg/kg is 20.5%.

Question: How did the inhibition at 1 µM [1] turn out when `O=C(Nc1nc2cc(Cl)ccc2o1)c1cc([N+](=O)[O-])ccc1Cl` [Example 75, N-(5-Chlorobenzoxazol-2-yl)-(2-chloro-5-nitrophenyl)carboxamide] was run?
Answer: Its inhibition at 1 µM is 65%.

Question: With `O=C(Nc1ncc(Br)cn1)c1cc([N+](=O)[O-])ccc1Cl` [Example 77, N-(5-Bromopyrimidin-2-yl)-(2-chloro-5-nitrophenyl)carboxamide] as the compound, how does the inhibition at 1 µM [1] read?
Answer: The inhibition at 1 µM was 1%.

Question: How did the inhibition at 1 µM [1] turn out when `Nc1ccc(-c2ccc(NC(=O)c3cc([N+](=O)[O-])ccc3Cl)cc2)cc1` [Example 88, N-[4-(4-Aminophenyl)phenyl]-(2-chloro-5-nitrophenyl)carboxamide mono-hydrochloride] was run?
Answer: Its inhibition at 1 µM is 8%.

Question: What about the inhibition in vivo at 10000 µg/mL, 100 mg/kg (Balb/c mice; [2]) of the same compound?
Answer: The inhibition in vivo at 10000 µg/mL, 100 mg/kg was 42.3%.

Question: And the inhibition in vivo at 10000 µg/mL, 100 mg/kg (Balb/c mice; [3])?
Answer: The inhibition in vivo at 10000 µg/mL, 100 mg/kg was 57%.

Question: Which inhibition at 1 µM [1] does the source give for `Cc1c(C)c2c(c(C)c1O)C(=O)CC(C)(COc1ccc(NC(=O)c3cc([N+](=O)[O-])ccc3Cl)cc1)O2` (stereo not shown) [Example 92, N-[4-(6-Hydroxy-2,5,7,8-tetramethyl-4-oxochroman-2-ylmethoxy)phenyl]-(2-chloro-5-nitrophenyl)carboxamide] here?
Answer: Its inhibition at 1 µM is 15%.

Question: For `CS(=O)(=O)Nc1ccc(-c2ccc(NC(=O)c3cc([N+](=O)[O-])ccc3Cl)cc2)cc1` [Example 93, N-[4-[4-(Methanesulfonylamino)phenyl]phenyl]-(2-chloro-5-nitrophenyl)carboxamide], which inhibition at 1 µM [1] is on record?
Answer: Its inhibition at 1 µM is 44%.

Question: With `Cc1nnc(NS(=O)(=O)c2ccc(NC(=O)c3cc([N+](=O)[O-])ccc3Cl)cc2)s1` [Example 101, N-[4-[(5-Methyl-[1,3,4]thiadiazol-2-yl)aminosulfonyl]phenyl]-(2-chloro-5-nitrophenyl)carboxamide] as the compound, how does the inhibition at 1 µM [1] read?
Answer: Its inhibition at 1 µM is 32%.

Question: Which inhibition at 1 µM [1] does the source give for `Cc1noc(NS(=O)(=O)c2ccc(NC(=O)c3cc([N+](=O)[O-])ccc3Cl)cc2)c1C` [Example 104, N-[4-[(3,4-Dimethylisoxazol-6-yl)aminosulfonyl]phenyl]-(2-chloro-5-nitrophenyl)carboxamide] here?
Answer: Its inhibition at 1 µM is 22%.

Question: With `O=C(Nc1ccc(N2CCCCC2)cc1)c1cc([N+](=O)[O-])ccc1Cl` [Example 114, N-[4-(Piperidin-1-yl)phenyl]-(2-chloro-5-nitrophenyl)carboxamide] as the compound, how does the inhibition at 1 µM [1] read?
Answer: Its inhibition at 1 µM is 22%.

Question: And the inhibition in vivo at 10000 µg/mL, 100 mg/kg (Balb/c mice; [2])?
Answer: The inhibition in vivo at 10000 µg/mL, 100 mg/kg was 32.8%.

Question: What about the inhibition in vivo at 10000 µg/mL, 100 mg/kg (Balb/c mice; [3]) of the same compound?
Answer: The inhibition in vivo at 10000 µg/mL, 100 mg/kg was 50.5%.

Question: Which inhibition at 1 µM [1] does the source give for `CC(=O)Nc1ccc(-c2ccc(NC(=O)c3cc([N+](=O)[O-])ccc3Cl)cc2)cc1` [Example 118, N-[4-(4-Acetylaminophenyl)phenyl]-(2-chloro-5-nitrophenyl)carboxamide] here?
Answer: The inhibition at 1 µM was 41%.

Question: And the inhibition in vivo at 10000 µg/mL, 100 mg/kg (Balb/c mice; [2])?
Answer: Its inhibition in vivo at 10000 µg/mL, 100 mg/kg is 55.8%.

Question: And the inhibition in vivo at 10000 µg/mL, 100 mg/kg (Balb/c mice; [3])?
Answer: Its inhibition in vivo at 10000 µg/mL, 100 mg/kg is 45%.

Question: For `O=C(Nc1ccc(-c2ccc(NC(=O)c3cc([N+](=O)[O-])ccc3Cl)cc2)cc1)c1ccccc1` [Example 120, N-[4-(4-Benzoylaminophenyl)phenyl]-(2-chloro-5-nitrophenyl)carboxamide], which inhibition at 1 µM [1] is on record?
Answer: The inhibition at 1 µM was 44%.

Question: How did the “Inhibition Rate (%) against the colony forming activity” value [1] turn out when `Cc1ccc2nc(NC(=O)c3cc([N+](=O)[O-])ccc3Cl)sc2c1` [Example 141, N-(6-Methybenzothiazol-2-yl)-(2-chloro-5-nitrophenyl)carboxamide] was run?
Answer: Its value is 47.0%.

Question: With `CCc1ccc(S(=O)(=O)Nc2ccc(NC(=O)c3cc([N+](=O)[O-])ccc3Cl)cc2)cc1` [Example 150, N-[4-(4-Ethylbenzenesulfonylamino)phenyl]-(2-chloro-5-nitrophenyl)carboxamide] as the compound, how does the inhibition at 1 µM [1] read?
Answer: The inhibition at 1 µM was 41%.

Question: `CC(=O)c1cccc(NC(=O)c2cc([N+](=O)[O-])ccc2Cl)c1` [Example 156, N-(3-Acetylphenyl)-(2-chloro-5-nitrophenyl)carboxamide] was tested. Which inhibition in vivo at 10000 µg/mL, 100 mg/kg (Balb/c mice; [2]) did it give?
Answer: The inhibition in vivo at 10000 µg/mL, 100 mg/kg was 85.5%.

Question: What about the inhibition in vivo at 10000 µg/mL, 100 mg/kg (Balb/c mice; [3]) of the same compound?
Answer: The inhibition in vivo at 10000 µg/mL, 100 mg/kg was 82.6%.

Question: `O=C(Nc1ccc(C(=O)N2CCCCC2)cc1)c1cc([N+](=O)[O-])ccc1Cl` [Example 159, N-[4-(Piperidylcarbonyl)phenyl]-(2-chloro-5-nitrophenyl)carboxamide] was tested. Which inhibition in vivo at 10000 µg/mL, 100 mg/kg (Balb/c mice; [2]) did it give?
Answer: Its inhibition in vivo at 10000 µg/mL, 100 mg/kg is 78.7%.

Question: What about the inhibition in vivo at 10000 µg/mL, 100 mg/kg (Balb/c mice; [3]) of the same compound?
Answer: Its inhibition in vivo at 10000 µg/mL, 100 mg/kg is 91.2%.

Question: For `CC(C)(C)c1cc(NS(=O)(=O)c2cccc(NC(=O)c3cc([N+](=O)[O-])ccc3Cl)c2)cc(C(C)(C)C)c1O` [Example 161, N-[3-[(3,5-di-tert-Butyl-4-hydroxyphenyl)aminosulfonyl]phenyl]-(2-chloro-5-nitrophenyl)carboxamide], which inhibition in vivo at 10000 µg/mL, 100 mg/kg (Balb/c mice; [2]) is on record?
Answer: The inhibition in vivo at 10000 µg/mL, 100 mg/kg was 82.8%.

Question: And the inhibition in vivo at 10000 µg/mL, 100 mg/kg (Balb/c mice; [3])?
Answer: Its inhibition in vivo at 10000 µg/mL, 100 mg/kg is 69.3%.

Question: Which “Preventing rate against liver injury, ALT (%)” value (Balb/c mice; oral) does the source give for “N-[4-[4-(Pyrrolidin-1-ylamino)phenyl]phenyl]-(2-chloro-5-nitrophenyl)carboxamide [Example 171]” here?
Answer: The value was 90.0%.

Question: And the “Preventing rate against liver injury, AST (%)” value (Balb/c mice; oral)?
Answer: The value was 102.8%.
